Measured values as given in US9920136B2, “Posaconazole immunoassays” (ARK Diagnostics, Inc., priority 2013, dated 2018).

Experiments:
[1] = system: Ab15421 (rabbit polyclonal antibody to posaconazole); test: Specificity of the immunoassay: cross-reactivity to antifungal triazoles; assay type: binding; details: Ab15421 with POS-IV G6PDH; for Cross-reaction of Ab15421 with other azole antifungals (in words): human serum samples, 10 μg/mL; for Cross-reactivity (%): triazole 20 μg/ml added to Posaconazole 10 μg/ml vs Posaconazole 10 μg/ml control, human serum
Description: Antibodies obtained using any of the disclosed techniques are screened or purified not only for their ability to react with posaconazole, but for a low cross-reactivity with potential interfering substances. “Cross-reactivity” may be determined in a quantitative immunoassay by establishing a standard curve using known dilutions of the target analyte, posaconazole. The standard curve is then used to calculate the apparent concentration of the interfering substance present in various known amounts in samples assayed under similar condition. The cross-reactivity can be calculated as the apparent concentration divided by the actual concentration multiplied by 100. A certain immunoassay for determining cross-reactivity is a homogeneous enzyme immunoassay using a wild type G6PDH as described in U.S. Pat. No. 3,817,837 or mutant G6PDH engineered to contain a cysteine per subunit as described in U.S. Pat. Nos. 6,033,890, 6,090,567 and 6,455,288. Furthermore, the cross-reactivity can be determined in the same type of immunoassay in which the antibody will ultimately be used.
To human serum negative for antifungal azoles was added posaconazole dissolved in methanol to achieve a concentration of 10 μg/mL of posaconazole. […]
The assay was calibrated as described in Example 8 using Enzyme Conjugate Reagent NB051:154 containing conjugate POS-IV G6PDH and Antibody Reagent NB051:154 containing Ab15421. The testing was performed on the HITACHI 917. The samples were quantified from the calibration curve generated.

[2] = cited from earlier work
[3] = system: Ab15421 (rabbit polyclonal antibody to posaconazole); test: Homogeneous enzyme immunoassay calibration curve (POS-IV G6PDH conjugate and Ab15421) in pooled human serum; assay type: binding; details: HITACHI 917, 340 nm
Protocol: Ab15421 was used to measure enzyme activity, generate a calibration curve, and evaluate assay precision, accuracy and specificity. Ab15421 was added into the antibody diluent to prepare the antibody reagent. The antibody reagent included Ab15421 as prepared above, buffer, stabilizers, preservatives, and the substrates for the enzyme conjugate nicotinamide adenine dinucleotide (NAD^+) and glucose-6-phosphate. Enzyme conjugate POS-IV G6PDH was added into the conjugate reagent to prepare the enzyme conjugate reagent. The enzyme conjugate reagent included the conjugate, buffer, stabilizers and preservatives. Enzyme conjugate POS-IV G6PDH was used with Ab15421 in examples below.
Ab15421 was added into the antibody diluent to prepare the antibody reagent. The antibody reagent included Ab15421 as prepared above, buffer, stabilizers, preservatives, and the substrates for the enzyme conjugate NAD^+ and glucose 6 phosphate. Enzyme conjugate POS-IV G6PDH or a label protein including alkaline phosphatase, β-galactosidase and horse radish peroxidase was added into the conjugate reagent to prepare the enzyme conjugate reagent. The enzyme conjugate reagent included the conjugate, buffer, stabilizers and preservatives.
The posaconazole antibodies and enzyme conjugates were used in a homogeneous assay format to detect posaconazole samples. Posaconazole containing sample was incubated with antibody reagent followed by the addition of the enzyme conjugate reagent. The enzyme conjugate activity decreased upon binding to Ab15421. The enzyme conjugate, which was not bound to Ab15421, catalyzed the oxidation of glucose 6-phosphate (G6P). The oxidation of G6P was coupled with the reduction of NAD^+ to NADH, which was measured at 340 nm. The change in the absorbance at 340 nm was measured spectrophotometrically. The posaconazole concentration in a sample was measured in terms of G6PDH activity. The increase in the rate at 340 nm was due to the formation of NADH and was proportional to the enzyme conjugate activity. An assay curve was generated using posaconazole added into serum negative for posaconazole. The assay rate increased with increasing the concentration of free drug in the sample.
Posaconazole was dissolved in methanol to give a stock solution of 1000 μg/mL. Pooled human serum was aliquoted in 10 mL portions. Posaconazole stock solution was added to the aliquots of human serum in preparing a series of known concentrations of posaconazole calibrators ranging from 0 to 16 μg/mL. The assay was performed using Enzyme Conjugate Reagent NB051:154 containing conjugate POS-IV G6PDH and Antibody Reagent NB051:154 containing Ab15421. Calibration curves were generated on the HITACHI 917 automated clinical chemistry analyzer, as described in Example 7 by measuring each level in duplicate.

Row | SMILES | Cross-reaction of Ab15421 with other azole antifungals (in words) [1] | Cross-reactivity (%) [1] | Increase of bioavailability on coadministration with food ([2]; coadministration with food) | Bioavailability (in words) ([2]; oral, saturable absorption) | Reaction Rate (mA/min) Average of Duplicates ([3]; Posaconazole Conc. 1.0 μg/mL in pooled human serum) | Reaction Rate (mA/min) Average of Duplicates ([3]; Posaconazole Conc. 2.0 μg/mL in pooled human serum) | Reaction Rate (mA/min) Average of Duplicates ([3]; Posaconazole Conc. 4.0 μg/mL in pooled human serum) | Reaction Rate (mA/min) Average of Duplicates ([3]; Posaconazole Conc. 8.0 μg/mL in pooled human serum) | Reaction Rate (mA/min) Average of Duplicates ([3]; Posaconazole Conc. 16.0 μg/mL in pooled human serum)
1 | OC(Cn1cncn1)(Cn1cncn1)c1ccc(F)cc1F [Fluconazole] | did not crossreact | <0.01% |  |  |  |  |  |  | 
2 | C[C@@H](c1ncncc1F)[C@](O)(Cn1cncn1)c1ccc(F)cc1F [Voriconazole] | did not crossreact | <0.01% |  |  |  |  |  |  | 
3 | CC[C@@H]([C@H](C)O)n1ncn(-c2ccc(N3CCN(c4ccc(OC[C@@H]5CO[C@@](Cn6cncn6)(c6ccc(F)cc6F)C5)cc4)CC3)cc2)c1=O [Posaconazole, 4-[4-[4-[4-[[(3R,5R)-5-(2,4-difluorophenyl)tetrahydro-5-(1H 1,2,4-triazol-1-ylmethyl)-3-furanyl]methoxy]phenyl]-1-piperazinyl]phenyl]-2-[(1S,2S)-1-ethyl-2-hydroxypropyl]-2,4-dihydro-3H-1,2,4-triazol-3-one] |  |  | up to 4 fold | low and highly variable bioavailability | 165.7 mA/min | 235.5 mA/min | 304.7 mA/min | 371.7 mA/min | 409.4 mA/min
